Measured values: patent US11542273B2, “Amide compound having bet proteolysis-inducing action and medicinal application thereof” (MITSUBISHI TANABE PHARMA CORPORATION, priority 2018, dated 2023)
Read-outs that look alike come from different tables or passages of the source.

What was measured:
[1] = test system: human prostate cancer LNCaP cells; assay: Cytotoxic action on cancer cells (WST-8, 96 hr); type: cell-based; details: Homo sapiens, LNCaP, 96 h, read-out: LNCaP cytotoxic activity: IC50
Outline: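 Viability was read by WST-8 after 96 hr of compound exposure, normalised to untreated wells, with cells pre-cultured overnight in 10% FBS/RPMI1640 at 37 °C and 5% CO2. IC50 comes from a straight line between the two survival points enclosing 50%.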

[2] = test system: human acute myeloid leukemia MV-4-11 cell transplanted mouse; assay: Antitumor effect in human acute myeloid leukemia MV-4-11 cell transplanted mouse; type: in vivo; details: MV4-11, iv, 360 h
Procedure: The in vivo antitumor effect of the compound of the present invention was studied using human acute myeloid leukemia MV-4-11 cell transplanted mouse. MV-4-11 cells were subcutaneously transplanted into the inguinal region of male, 6-week-old BALB/c nude mouse (5×10^6 cells/mouse). The compound of the present invention was administered into the tail vein on days 1, 5, 9, 13 from the time point when the assumed tumor volume determined from 1/2ab^2 (a is major axis and b is minor axis of tumor) reached about 100 mm^3 (day 1). The control group was administered with a solvent, 10% hydroxypropyl-β-cyclodextrin solution. On day 15, the tumor was isolated, the weight was measured, and the tumor growth inhibitory rate IR (%) was calculated by the following formula. tumor growth inhibitory rate IR (%)=(1−tumor weight of administration group/tumor weight of nonadministration control group)×100

BRD4 protein = BRD4 protein (Homo sapiens (Human), UniProt O60885); assay: BRD4 protein degradation inducing action in cancer cells (immunofluorescence, Operetta); type: cell-based; details: LNCaP cells, 6 hr treatment, fluorescence intensity
Outline: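 DC50 = compound concentration reducing BRD4 immunofluorescence to 50% of untreated cells, interpolated between the two flanking concentrations. Treatment: LNCaP cells, 6 hr, 10% FBS/RPMI1640, 37° C. Cells were then fixed, permeabilized, stained with anti-BRD4 and Alexa Fluor 488 or 546 secondaries, and imaged.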

[3] = read-out: tumor growth inhibitory rate

SMILES	IC50 [1] [nM]	inhibition in vivo at 0.3 mg/kg ([2]; dose 0.3 mg/kg/day, tail vein on days 1, 5, 9, 13, tumor weight on day 15, read-out: tumor growth inhibitory rate) [%]	DC50 (BRD4 protein) [nM]	inhibition in vivo at 3 mg/kg [2, 3] [%]	inhibition in vivo at 0.3 mg/kg [2, 3] [%]	inhibition in vivo at 3 mg/kg ([2]; dose 3 mg/kg/day, tail vein on days 1, 5, 9, 13, tumor weight on day 15, read-out: tumor growth inhibitory rate) [%]	inhibition in vivo at 1 mg/kg [2, 3] [%]
COC(=O)N[C@@H]1N=C(c2ccc(-c3ccc(OCC(=O)N[C@H](C(=O)N4C[C@H](O)C[C@H]4C(=O)N[C@@H](C)c4ccc(-c5scnc5C)cc4)C(C)(C)C)cc3)cc2)c2c(sc(C)c2C)-n2c(C)nnc21 [Example 31, methyl [(6R)-4-{4′-[2-({(2S)-1-[(2S,4R)-4-hydroxy-2-({(1S)-1-[4-(4-methyl-1,3-thiazol-5-yl)phenyl]ethyl}carbamoyl)pyrrolidin-1-yl]-3,3-dimethyl-1-oxobutan-2-yl}amino)-2-oxoethoxy][1,1′-biphenyl]-4-yl}-2,3,9-trimethyl-6H-thieno[3,2-f][1,2,4]triazolo[4,3-a][1,4]diazepin-6-yl]carbamate]	0.039	95.6	0.062				
COC(=O)C[C@@H]1N=C(c2ccc(-c3ccc(OCC(=O)N[C@H](C(=O)N4C[C@H](O)C[C@H]4C(=O)NCc4ccc(-c5scnc5C)cc4)C(C)(C)C)cc3)cc2)c2c(sc(C)c2C)-n2c(C)nnc21 [Example 61, methyl [(6S)-4-{4′-[2-({(25)-1-[(2S,4R)-4-hydroxy-2-({[4-(4-methyl-1,3-thiazol-5-yl)phenyl]methyl}carbamoyl)pyrrolidin-1-yl]-3,3-dimethyl-1-oxobutan-2-yl}amino)-2-oxoethoxy][1,1′-biphenyl]-4-yl}-2,3,9-trimethyl-6H-thieno[3,2-f][1,2,4]triazolo[4,3-a][1,4]diazepin-6-yl]acetate]	0.17		0.81	97.2			
COC(=O)C[C@@H]1N=C(c2ccc(-c3ccc(C(=O)N[C@H](C(=O)N4C[C@H](O)C[C@H]4C(=O)N[C@@H](C)c4ccc(-c5scnc5C)cc4)C(C)(C)C)cc3F)cc2)c2c(sc(C)c2C)-n2c(C)nnc21 [Example 62, methyl {(6S)-4-[2′-fluoro-4′-({(2S)-1-[(2S,4R)-4-hydroxy-2-({(1S)-1-[4-(4-methyl-1,3-thiazol-5-yl)phenyl]ethyl}carbamoyl)pyrrolidin-1-yl]-3,3-dimethyl-1-oxobutan-2-yl}carbamoyl) [1,1′-biphenyl]-4-yl]-2,3,9-trimethyl-6H-thieno[3,2-f][1,2,4]triazolo[4,3-a][1,4]diazepin-6-yl}acetate]	0.26		0.24	97.4	95.6		
COC(=O)C[C@@H]1N=C(c2ccc(N3CC[C@@H](C(=O)NCCOc4ccc5oc(C(=O)N[C@H](C(=O)N6C[C@H](O)C[C@H]6C(=O)N[C@@H](C)c6ccc(-c7scnc7C)cc6)C(C)(C)C)cc5c4)C3)cc2)c2c(sc(C)c2C)-n2c(C)nnc21 [Example 67, methyl [(6S)-4-(4-{(3R)-3-[(2-{[2-({(2S)-1-[(2S,4R)-4-hydroxy-2-({(1S)-1-[4-(4-methyl-1,3-thiazol-5-yl)phenyl]ethyl}carbamoyl)pyrrolidin-1-yl]-3,3-dimethyl-1-oxobutan-2-yl}carbamoyl]-1-benzofuran-5-yl]oxy}ethyl)carbamoyl]pyrrolidin-1-yl}phenyl)-2,3,9-trimethyl-6H-thieno[3,2-f][1,2,4]triazolo[4,3-a][1,4]diazepin-6-yl]acetate]	0.47		0.55			97.7	
COC(=O)C[C@@H]1N=C(c2ccc(-c3ccc(C(=O)N[C@H](C(=O)N4C[C@H](O)C[C@H]4C(=O)N[C@@H](C)c4ccc(-c5scnc5C)cc4)C(C)(C)C)c(F)c3)cc2)c2c(sc(C)c2C)-n2c(C)nnc21 [Example 94, methyl {(6S)-4-[3′-fluoro-4′-({(2S)-1-[(2S,4R)-4-hydroxy-2-({(1S)-1-[4-(4-methyl-1,3-thiazol-5-yl)phenyl]ethyl}carbamoyl)pyrrolidin-1-yl]-3,3-dimethyl-1-oxobutan-2-yl}carbamoyl)[1,1′-biphenyl]-4-yl]-2,3,9-trimethyl-6H-thieno[3,2-f][1,2,4]triazolo[4,3-a][1,4]diazepin-6-yl}acetate]	0.29		0.64	98.2			
COC(=O)C[C@@H]1N=C(c2ccc(-c3ccc4oc(C(=O)N[C@H](C(=O)N5C[C@H](O)C[C@H]5C(=O)N[C@@H](C)c5ccc(-c6scnc6C)cc5)C(C)(C)C)nc4c3)cc2)c2c(sc(C)c2C)-n2c(C)nnc21 [Example 101, methyl [(6S)-4-{4-[2-({(2S)-1-[(2S,4R)-4-hydroxy-2-({(1S)-1-[4-(4-methyl-1,3-thiazol-5-yl)phenyl]ethyl}carbamoyl)pyrrolidin-1-yl]-3,3-dimethyl-1-oxobutan-2-yl}carbamoyl)-1,3-benzoxazol-5-yl]phenyl}-2,3,9-trimethyl-6H-thieno[3,2-f][1,2,4]triazolo[4,3-a][1,4]diazepin-6-yl]acetate]	0.059		0.052	98.2			
COC(=O)C[C@@H]1N=C(c2ccc(N3CC[C@H](C(=O)Nc4ccc5oc(C(=O)N[C@H](C(=O)N6C[C@H](O)C[C@H]6C(=O)N[C@@H](C)c6ccc(-c7scnc7C)cc6)C(C)(C)C)cc5c4)C3)cc2)c2c(sc(C)c2C)-n2c(C)nnc21 [Example 138, methyl [(6S)-4-{4-[(3S)-3-{[2-({(2S)-1-[(2S,4R)-4-hydroxy-2-({(1S)-1-[4-(4-methyl-1,3-thiazol-5-yl)phenyl]ethyl}carbamoyl)pyrrolidin-1-yl]-3,3-dimethyl-1-oxobutan-2-yl}carbamoyl)-1-benzofuran-5-yl]carbamoyl}pyrrolidin-1-yl]phenyl}-2,3,9-trimethyl-6H-thieno[3,2-f][1,2,4]triazolo[4,3-a][1,4]diazepin-6-yl]acetate]	0.24		0.62	98.6			97.8
COC(=O)C[C@@H]1N=C(c2ccc(-c3ccc(OCC(=O)N[C@H](C(=O)N4C[C@H](O)C[C@H]4C(=O)N[C@@H](C)c4ccc(-c5scnc5C)cc4)C(C)(C)C)cc3OC(F)(F)F)cc2)c2c(sc(C)c2C)-n2c(C)nnc21 [Example Compound 75, methyl [(6S)-4-{4′-[2-({(2S)-1-[(2S,4R)-4-hydroxy-2-({(1S)-1-[4-(4-methyl-1,3-thiazol-5-yl)phenyl]ethyl}carbamoyl)pyrrolidin-1-yl]-3,3-dimethyl-1-oxobutan-2-yl}amino)-2-oxoethoxy]-2′-(trifluoromethoxy)[1,1′-biphenyl]-4-yl}-2,3,9-trimethyl-6H-thieno[3,2-f] [1,2,4]triazolo[4,3-a][1,4]diazepin-6-yl]acetate]	0.39		0.75				
COC(=O)C[C@@H]1N=C(c2ccc(-c3ccc(C(=O)N[C@@H](C)C(=O)N[C@H](C(=O)N4C[C@H](O)C[C@H]4C(=O)N[C@@H](C)c4ccc(-c5scnc5C)cc4)C(C)(C)C)cc3)cc2)c2c(sc(C)c2C)-n2c(C)nnc21 [Example Compound 91, methyl [(6S)-4-(4′-{[(2S)-1-({(2S)-1-[(2S,4R)-4-hydroxy-2-({(1S)-1-[4-(4-methyl-1,3-thiazol-5-yl)phenyl]ethyl}carbamoyl)pyrrolidin-1-yl]-3,3-dimethyl-1-oxobutan-2-yl}amino)-1-oxopropan-2-yl]carbamoyl}[1,1′-biphenyl]-4-yl)-2,3,9-trimethyl-6H-thieno[3,2-f] [1,2,4]triazolo[4,3-a][1,4]diazepin-6-yl]acetate]	0.54		0.77				
COC(=O)C[C@@H]1N=C(c2ccc(-c3ccc(OCC(=O)N[C@H](C(=O)N4C[C@H](O)C[C@H]4C(=O)N[C@@H](C)c4ccc(-c5scnc5C)cc4)C(C)(C)C)c(C(F)(F)F)c3)cc2)c2c(sc(C)c2C)-n2c(C)nnc21 [Example Compound 100, methyl [(6S)-4-{4′-[2-({(2S)-1-[(2S,4R)-4-hydroxy-2-({(1S)-1-[4-(4-methyl-1,3-thiazol-5-yl)phenyl]ethyl}carbamoyl)pyrrolidin-1-yl]-3,3-dimethyl-1-oxobutan-2-yl}amino)-2-oxoethoxy]-3′-(trifluoromethyl)[1,1′-biphenyl]-4-yl}-2,3,9-trimethyl-6H-thieno[3,2-f] [1,2,4]triazolo[4,3-a][1,4]diazepin-6-yl]acetate]	0.67		0.21				
